From patent US7429607B2, “5-HT2B receptor antagonists” (Asterand UK Limited, priority 2002, dated 2008)

Columns and labels:
[1] = target: T1, 5-HT2B receptor in human tissues (Homo sapiens, UniProt P41595); test: Human 5-HT2B receptor tissue based functional assay (human colon longitudinal smooth muscle); assay type: cell-based; settings: antagonism of 5-HT effect on electrically stimulated human colon longitudinal muscle; pKB=log(CR-1)-log(antagonist concentration)
T1 construct: from tissue; host or cells: human colon longitudinal smooth muscle strips
Method: An in vitro functional assay, using human colon smooth muscle, was carried out to determine the affinity of the test compounds at the 5-HT2B receptor in human tissues. Sections of human colon were cut open along their longitudinal axis. The sections were pinned out flat and the mucosa carefully removed using sharp dissecting scissors. Once the mucosa was removed, the section was turned over to reveal the three taenia coli (taenia mesencolica, taenia omentalis and taenia libera) and the muscle bands that lie between them. Longitudinal muscle strips (2 mm wide by 20 mm long) were then cut from the tissue between the taenia coli and suspended between stainless steel hooks in organ chambers containing oxygenated (95% O2/5% CO2) Krebs solution at 37° C. The composition of the Krebs solution was as follows: NaCl (118.2 mM), KCl (4.69 mM), MgSO4.7H2O (1.18 mM), KH2PO4 (1.19 mM), glucose (11.1 mM), NaHCO3 (25.0 mM), CaCl2.6H2O (2.5 mM). Tissues were placed under a load equivalent to 10 mN and left to equilibrate for a period of at least 60 minutes. Responses were recorded using isometric transducers coupled to an Apple Macintosh computer via a MacLab interface. After 60 minutes, the longitudinal muscle sections of the human colon were stimulated electrically (sub-maximal voltage and frequency with 60s between successive stimulations) using parallel platinum wire electrodes and a Multistim D330 pulse stimulator. Upon electrical stimulation, the strips of human colon longitudinal smooth muscle responded with a rapid contraction. Once the response to electrical stimulation had stabilised (stimulated responses differed by no more than 10%), the strips were exposed to increasing concentrations of 5-HT (1×10^−9 to 1×10^−5M), in the absence or presence of test compounds (1×10^−7 to 1×10^−5M, incubated for 30 minutes). To determine the affinity of the compounds, the concentration of 5-HT required to produce half-maximal effects (EC50) was calculated in the absence and presence of test compound. The antagonist affinity was calculated by dividing the EC50 for 5-HT in the presence of antagonist by the EC50 for 5-HT in the absence of antagonist to yield a concentration ratio (CR). The results are shown in table 2 below as a pKB value, which is calculated as follows: pKB=log(CR−1)−log(antagonist concentration). This approach follows that set out in Kenakin, T. P. Pharmacologic analysis of drug-receptor interaction. Raven Press, New York, 2nd Edition.

[2] = target: T2, human cloned 5-HT2B receptors (Homo sapiens, UniProt P41595); test: Human cloned 5-HT2B receptor binding assay ([3H]LSD, CHO-K1 membranes); settings: displacement of [3H]LSD (1 nM), read-out: 5-HT2B pKi (converted)
T2 construct: expressed in transfected cells; host or cells: CHO-K1 cells
Method: The binding affinity of the compounds for human cloned 5-HT2B receptors was determined using the following assay.
CHO-K1 cells expressing cloned 5-HT2B receptor were maintained in Ultra-CHO medium containing 400 μg/ml of G418, 100 U/ml penicillin, 100 μg/ml streptomycin, 2.5 μg/ml fungizone and 1% foetal bovine serum, in 95/5% O2/CO2 at 37° C. The cells were harvested using 0.25% trypsin and were centrifuged at 800 rpm for 8 minutes. The cells were homogenised in 50 mM HEPES buffer containing 1 mM disodium EDTA and 1 mM PMSF at pH 7.4, using a Dounce homogeniser (20 strokes). The homogenate was centrifuged at 2280 rpm (1000 g) and 4° C. for 10 minutes, after which the supernatant was removed by decanting. The pellet was re-homogenised as above, and the resulting supernatant removed and combined with that already obtained. The supernatant solution was then centrifuged at 18300 rpm (40000 g) for 10 minutes at 4° C. using a Sorvall centrifuge. The supernatant was removed, and the pellet was re-suspended in 50 mM buffer at pH 7.4 using a Ultra-turrax T25 Polytron, before centrifugation again at 40000 g as above. This wash procedure was repeated, after which the membrane preparation was stored at a concentration of 1 mg/ml at −80° C. until use.
The membranes were thawed rapidly and diluted in assay buffer containing Tris-HCl (50 mM, pH 7.4), ascorbic acid (0.1%) and calcium chloride (4 mM). The membranes were homogenised to resuspend them, prior to adding 10 or 15 μg of membranes to assay wells containing [^3H]LSD (1 nM), assay buffer (50 mM Tris, 4 mM calcium chloride and 0.1% ascorbic acid) containing pargyline (10 μM), and the test compounds (1×10^−10 to 1×10^−4M). Non specific binding was determined in the presence of 100 μM 5-HT. After 30 minutes incubation at 37° C., the assay mixture was filtered through a combination of GF-C and GF-B filters, pre-soaked in 1% polyethyleneimine, using a Brandel cell harvester, and were washed three times using 50 mM Tris-HCl. Radioactivity retained on the filters was determined by liquid scintillation counting. For each test compound, the concentration that inhibited binding of [3H]LSD by 50% was determined using curve fitting software (Prism). Kd values (concentration of LSD required to occupy 50% of the receptor binding sites at equilibrium) determined from saturation binding studies were then used to calculate inhibition dissociation constants (Ki) using the following equation: […]
This approach follows that set out in Kenakin, T.P. Pharmacologic analysis of drug-receptor interaction. Raven Press, New York, 2nd Edition.

T2 sequence (P41595 whole entry): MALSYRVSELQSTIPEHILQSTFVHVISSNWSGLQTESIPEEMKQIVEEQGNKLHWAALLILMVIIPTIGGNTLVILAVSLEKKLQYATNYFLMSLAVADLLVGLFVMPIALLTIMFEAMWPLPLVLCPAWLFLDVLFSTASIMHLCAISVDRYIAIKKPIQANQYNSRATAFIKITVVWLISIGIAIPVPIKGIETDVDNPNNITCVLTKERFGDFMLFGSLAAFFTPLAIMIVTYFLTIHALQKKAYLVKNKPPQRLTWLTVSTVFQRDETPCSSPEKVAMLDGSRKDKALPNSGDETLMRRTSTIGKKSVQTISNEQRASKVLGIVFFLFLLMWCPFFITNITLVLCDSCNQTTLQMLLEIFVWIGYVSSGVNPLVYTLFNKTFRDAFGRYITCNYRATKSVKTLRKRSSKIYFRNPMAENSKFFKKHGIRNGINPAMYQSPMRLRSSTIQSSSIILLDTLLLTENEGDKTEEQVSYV
T1 sequence (P41595 whole entry): as above

SMILES | Kb [1] [nM] | Ki [2] [nM] | melting point [°C]
Cc1ccc2ccccc2c1-c1coc(N)n1 [Compound 6, 2-amino-4-(2′-methylnaphth-1-yl)oxazole] | < 100 | < 10 | –
Nc1nc(-c2cccc3ccccc23)co1 [Compound 1, 2-amino-4-(naphth-1-yl)oxazole] | < 100 | < 100 | 155 to 162
COc1ccc2ccccc2c1-c1coc(N)n1 [Compound 17, 4-(2-methoxy-naphthalen-1-yl)-oxazol-2-ylamine] | < 10 | < 10 | –
CC(C)c1nc(N)oc1-c1cccc2ccccc12 [Compound 7, 2-amino-4-isopropyl-5-(naphth-1-yl)oxazole] | < 10 | < 10 | 127 to 129
CC(C)c1nc(N)oc1-c1ccc(F)c2ccccc12 [Compound 31, 2-amino-5-(4′-fluoronaphth-1-yl)-4-isopropyloxazole] | < 100 | < 10 | 141
